Our source for the IC50 values is patent publication US20130196986A1 (priority 2010, published 2013).

The target in this experiment is T1, P2X7 receptor (Homo sapiens, UniProt Q99572).
T1 construct: stably expressing the full length P2X7 receptor; expressed in transfected cells
T1 sequence (Q99572 1-595): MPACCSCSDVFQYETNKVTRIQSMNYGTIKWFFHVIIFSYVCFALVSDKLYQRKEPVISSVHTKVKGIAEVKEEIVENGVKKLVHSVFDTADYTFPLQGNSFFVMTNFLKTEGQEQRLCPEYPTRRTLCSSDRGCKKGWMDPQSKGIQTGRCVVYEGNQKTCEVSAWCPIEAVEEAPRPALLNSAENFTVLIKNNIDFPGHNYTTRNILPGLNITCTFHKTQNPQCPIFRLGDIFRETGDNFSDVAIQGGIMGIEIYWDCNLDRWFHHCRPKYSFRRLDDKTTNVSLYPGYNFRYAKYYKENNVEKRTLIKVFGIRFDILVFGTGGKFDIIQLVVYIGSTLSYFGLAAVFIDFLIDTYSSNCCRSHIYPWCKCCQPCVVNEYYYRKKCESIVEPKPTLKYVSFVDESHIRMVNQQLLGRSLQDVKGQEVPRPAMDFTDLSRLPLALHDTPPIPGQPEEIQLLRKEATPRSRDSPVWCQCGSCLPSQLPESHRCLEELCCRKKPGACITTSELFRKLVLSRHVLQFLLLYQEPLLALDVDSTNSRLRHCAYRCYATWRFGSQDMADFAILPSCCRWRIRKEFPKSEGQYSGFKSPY
Description: Ca++ flux assay (FLIPR) in P2X7-HEK-293 cell line stably expressing the full length P2X7 receptor, Bz-ATP activation. It counts as cell-based. The conditions noted are these: P2X7-HEK-293 cells; agonist Bz-ATP; fluorescence as total area over 90 seconds; read-out: P2X7 Ca Flux hu IC50. The protocol:
The ability of Triazolopyrazinone Compounds to inhibit P2X7 function can be determined in Ca^++ flux assay using a P2X7-HEK-293 cell line stably expressing the full length P2X7 receptor. The assay protocol is as described in Cheewatrakoolpong et al., Biochem. Biophys. Res. Commun. 332:17-27 (2005) with minor modification, and is as summarized hereinafter. Briefly, cells were plated in poly-D-lysine-coated wells, and incubated at 37° C. for 24 hours. Cells were then incubated for 1 hour with a loading buffer which contains a dye sensitive to changes in Ca^++ concentration (lx Calcium Plus no wash dye from Molecular Devices, Sunnyvale, Calif.). The test compounds were added to the wells in the dye loading step. Plates containing the wells were transferred to a Fluorometric Imaging Plate Reader (Molecular Devices, Sunnyvale, Calif.). The cells were activated by the addition of the P2X7 receptor agonist 2′(3) —O-(4-benzoylbenzoyl)adenosine 5′-triphosphate (Bz-ATP from Sigma-Aldrich, St. Louis, Mo.), and the fluorescence was monitored for 90 seconds. The fluorescent signal was determined as the total area over the 90 second run time. Using this protocol, representative Triazolopyrazinone Compounds, compounds 1471 were tested. Tables 3 to 6 show the concentration at which 50% of the maximum response in the Ca^++ was inhibited (IC50) for each of the test compounds.

Turning to `O=c1c2nnc(SCc3cc(Cl)cc(Cl)c3)n2ccn1-c1cccc(C(F)(F)F)c1Cl` [Compound 60, 7-(2-chloro-3-(trifluorornethyl)phenyl)-3-(3,5-dichlorobenzylthio)-[1,2,4]triazolo[4,3-a]pyrazin-8(7H)-one], the IC50 came out at 0.0914 µM.

`O=c1c2nnc(SCc3ccccc3)n2ccn1-c1cccc(C(F)(F)F)c1Cl` [Compound 61, 3-(benzylthio)-7-(2-chloro-3-(trifluoromethyl)phenyl)-[1,2,4]triazolo[4,3-a]pyrazin-8(7H)-one]: the IC50 came to 0.0449 µM.

Consider `Cc1c(-n2ccn3c(SC(C)c4ccccc4)nnc3c2=O)cccc1C(F)(F)F` (stereo not drawn) [Compound 62, 7-(2-methyl-3-(trifluoromethyl)phenyl)-3-(1-phenylethylthio)-[1,2,4]triazolo[4,3-a]pyrazin-8(7H)-one], for which the IC50 was 0.0575 µM.

`Cc1c(Cl)cccc1-n1ccn2c(SCc3cccc(Cl)c3F)nnc2c1=O` [Compound 63, 3-(3-chloro-2-fluorobenzylthio)-7-(3-chloro-2-methylphenyl)-[1,2,4]triazolo[4,3-a]pyrazin-8(7H)-one]: the IC50 was found to be 2.54 µM.

As for `Cc1c(Cl)cccc1-n1ccn2c(SCc3cc(Cl)ccc3F)nnc2c1=O` [Compound 64, 3-(5-chloro-2-fluorobenzylthio)-7-(3-chloro-2-methylphenyl)-[1,2,4]triazolo[4,3-a]pyrazin-8(7H)-one], the IC50 worked out at 0.755 µM.

Take `O=c1c2nnc(SCc3ccccc3)n2ccn1-c1cccc(F)c1Cl` [Compound 65, 3-(benzylthio)-7-(2-chloro-3-fluorophenyl)-[1,2,4]triazolo[4,3-a]pyrazin-8(7H)-one]: the IC50 worked out at 0.189 µM.

Consider `Cc1c(Cl)cccc1-n1ccn2c(SCc3cccc(Cl)c3Cl)nnc2c1=O` [Compound 66, 7-(3-chloro-2-methylphenyl)-3-(2,3-dichlorobenzylthio)-[1,2,4]triazolo[4,3-a]pyrazin-8(7H)-one], for which the IC50 stood at 0.324 µM.

Turning to `O=c1c2nnc(SCc3cc(Cl)cc(Cl)c3)n2ccn1-c1cccc(Cl)c1Cl` [Compound 67, 3-(3,5-dichlorobenzylthio)-7-(2,3-dichlorophenyl)-[1,2,4]triazolo[4,3-a]pyrazin-8(7H)-one], the IC50 is 0.168 µM.

With `Cc1c(Cl)cccc1-n1ccn2c(SCc3c(F)cccc3C(F)(F)F)nnc2c1=O` [Compound 68, 7-(3-chloro-2-methylphenyl)-3-(2-fluoro-6-(trifluoromethyl)benzylthio)-[1,2,4]triazolo[4,3-a]pyrazin-8(7H)-one], the IC50 is 0.475 µM.

For `Cc1c(-n2ccn3c(SCc4cc(Cl)cc(Cl)c4)nnc3c2=O)cccc1C(F)(F)F` [Compound 69, 3-(3,5-dichlorobenzylthio)-7-(2-methyl-3-(trifluoromethyl)phenyl)-[1,2,4]triazolo[4,3-a]pyrazin-8(7H)-one], the IC50 was found to be 0.188 µM.

For `Cc1c(Cl)cccc1-n1ccn2c(SCc3ccccc3OC(F)(F)F)nnc2c1=O` [Compound 70, 7-(3-chloro-2-methylphenyl)-3-(2-(trifluoromethoxy)benzylthio)-[1,2,4]triazolo[4,3-a]pyrazin-8(7H)-one], the IC50 worked out at 0.112 µM.

As to `Cc1c(Cl)cccc1-n1ccn2c(SCc3ccccc3Br)nnc2c1=O` [Compound 71, 3-(2-bromobenzylthio)-7-(3-chloro-2-methylphenyl)-[1,2,4]triazolo[4,3-a]pyrazin-8(7H)-one], the IC50 was found to be 0.142 µM.

Turning to `Cc1c(Cl)cccc1-n1ccn2c(SCc3cc(Cl)ccc3Cl)nnc2c1=O` [Compound 72, 7-(3-chloro-2-methylphenyl)-3-(2,5-dichlorobenzylthio)-[1,2,4]triazolo[4,3-a]pyrazin-8(7H)-one], the IC50 worked out at 3.15 µM.

With `Cc1cccc(CSc2nnc3c(=O)n(-c4cccc(Cl)c4C)ccn23)c1` [Compound 73, 7-(3-chloro-2-methylphenyl)-3-(3-methylbenzylthio)-[1,2,4]triazolo[4,3-a]pyrazin-8(7H)-one], the IC50 came to 0.439 µM.

Take `Cc1c(Cl)cccc1-n1ccn2c(SCc3ccccc3I)nnc2c1=O` [Compound 74, 7-(3-chloro-2-methylphenyl)-3-(2-iodobenzylthio)-[1,2,4]triazolo[4,3-a]pyrazin-8(7H)-one]: the IC50 was found to be 0.264 µM.

On to `Cc1c(Cl)cccc1-n1ccn2c(SCc3c(Cl)cccc3Cl)nnc2c1=O` [Compound 75, 7-(3-chloro-2-methylphenyl)-3-(2,6-dichlorobenzylthio)-[1,2,4]triazolo[4,3-a]pyrazin-8(7H)-one], for which the half-inhibitory concentration (IC50) was determined as 0.28 µM.

Turning to `Cc1c(Cl)cccc1-n1ccn2c(SCc3cccc(I)c3)nnc2c1=O` [Compound 77, 7-(3-chloro-2-methylphenyl)-3-(3-iodobenzylthio)-[1,2,4]triazolo[4,3-a]pyrazin-8(7H)-one], the IC50 was found to be 0.462 µM.

For the compound `Cc1c(Cl)cccc1-n1ccn2c(SCc3cc(Cl)cc(C(F)(F)F)c3)nnc2c1=O` [Compound 78, 7-(3-chloro-2-methylphenyl)-3-(3-chloro-5-(trifluoromethyl)benzylthio)-[1,2,4]triazolo[4,3-a]pyrazin-8(7H)-one], the IC50 was determined as 0.597 µM.

Take `COc1cc(CSc2nnc3c(=O)n(-c4cccc(Cl)c4C)ccn23)cc(OC)c1` [Compound 79, 7-(3-chloro-2-methylphenyl)-3-(3,5-dimethoxybenzylthio)-[1,2,4]triazolo[4,3-a]pyrazin-8(7H)-one]: the IC50 came out at 1.33 µM.

`COc1c(Cl)cccc1-n1ccn2c(SCc3ccccc3)nnc2c1=O` [Compound 80, 3-(benzylthio)-7-(3-chloro-2-methoxyphenyl)-[1,2,4]triazolo[4,3-a]pyrazin-8(7H)-one]: the IC50 amounted to 0.533 µM.

As for `O=c1c2nnc(SCc3ccccc3)n2ccn1-c1ccccc1Cl` [Compound 81, 3-(benzylthio)-7-(2-chlorophenyl)-[1,2,4]triazolo[4,3-a]pyrazin-8(7H)-one], the IC50 came to 0.946 µM.

On to `O=c1c2nnc(SCc3ccccc3)n2ccn1-c1cccc(Cl)c1F` [Compound 82, 3-(benzylthio)-7-(3-chloro-2-fluorophenyl)-[1,2,4]triazolo[4,3-a]pyrazin-8(7H)-one], for which the IC50 is 0.374 µM.

Turning to `Cc1c(Br)cccc1-n1ccn2c(SCc3cc(Cl)cc(Cl)c3)nnc2c1=O` [Compound 83, 7-(3-brorno-2-methylphenyl)-3-(3,5-dichlorobenzylthio)-[1,2,4]triazolo[4,3-a]pyrazin-8(7H)-one], the IC50 was determined as 0.855 µM.

For the compound `Cc1c(Cl)cccc1-n1ccn2c(SCc3cccc(OC(F)(F)F)c3)nnc2c1=O` [Compound 85, 7-(3-chloro-2-methylphenyI)-3-(3-(trifluoromethoxy)benzylthio)-[1,2,4]triazolo[4,3-a]pyrazin-8(7H)-one], the IC50 turned out to be 0.503 µM.

As to `Cc1c(Cl)cccc1-n1ccn2c(SCc3cccc(Br)c3)nnc2c1=O` [Compound 86, 3-(3-bromobenzylthio)-7-(3-chloro-2-methylphenyl)-[1,2,4]triazolo[4,3-a]pyrazin-8(7H)-one], the IC50 is 0.446 µM.

As to `Cc1c(Cl)cccc1-n1ccn2c(SCc3ccccc3C#N)nnc2c1=O` [Compound 87, 2((7-(3-chloro-2-methylphenyl)-8-oxo-7,8-dihydro-[1,2,4]triazolo[4,3-a]pyrazin-3-ylthio)methyl)benzonitrile], the IC50 stood at 0.434 µM.

`Cc1c(Cl)cccc1-n1ccn2c(SCc3cc(C(F)(F)F)cc(C(F)(F)F)c3)nnc2c1=O` [Compound 88, 3-(3,5-bis(trifluoromethyl)benzylthio)-7-(3-chloro-2-methylphenyl)-[1,2,4]triazolo[4,3-a]pyrazin-8(7H)-one]: the IC50 turned out to be 8.37 µM.

Take `Cc1c(Cl)cccc1-n1ccn2c(SCc3cccc(C(F)(F)F)c3)nnc2c1=O` [Compound 89, 7-(3-chloro-2-methylphenyl)-3-(3-(trifluoromethyl)benzylthio)-[1,2,4]triazolo[4,3-a]pyrazin-8(7H)-one]: the IC50 amounted to 0.581 µM.

As to `COC(=O)c1ccccc1CSc1nnc2c(=O)n(-c3cccc(Cl)c3C)ccn12` [Compound 90, methyl 2-((7-(3-chloro-2-methylphenyl)-8-oxo-7,8-dihydro-[1,2,4]triazolo[4,3-a]pyrazin-3-ylthio)methyl)benzoate], the IC50 worked out at 0.643 µM.

For the compound `COC(=O)c1cccc(CSc2nnc3c(=O)n(-c4cccc(Cl)c4C)ccn23)c1` [Compound 91, methyl 3-((7-(3-chloro-2-methylphenyl)-8-oxo-7,8-dihydro-[1,2,4]triazolo[4,3-a]pyrazin-3-ylthio)methyl)benzoate], the IC50 came out at 3.25 µM.

In general, IC50 refers to the concentration that inhibits the measured activity by half.
